Results reported in patent publication US6953800B2, “Use of selective antagonists of the α1B-adrenergic receptor for improvement of sexual dysfunction” (Recordati S.A. Chemical, priority 1999, dated 2005).
pKi: −log10 of the molar value. Several values for one entry are separate records, joined by “and”; a condition that tells them apart may be missing. Equal values may be shown once.

Columns and labels:
hamster α1b-adrenoceptor = target: T1, hamster α1b-adrenoceptor (Mesocricetus auratus, UniProt P18841); test: [3H]Prazosin binding, hamster α1b-adrenoceptor in COS-7 cell membranes; settings: COS-7 membranes, read-out: Affinity (Ki) α1b, animal cloned receptors
T1 construct: expressed in transfected cells; host or cells: COS-7 cells (transient), membranes
T1 sequence (P18841 1-515): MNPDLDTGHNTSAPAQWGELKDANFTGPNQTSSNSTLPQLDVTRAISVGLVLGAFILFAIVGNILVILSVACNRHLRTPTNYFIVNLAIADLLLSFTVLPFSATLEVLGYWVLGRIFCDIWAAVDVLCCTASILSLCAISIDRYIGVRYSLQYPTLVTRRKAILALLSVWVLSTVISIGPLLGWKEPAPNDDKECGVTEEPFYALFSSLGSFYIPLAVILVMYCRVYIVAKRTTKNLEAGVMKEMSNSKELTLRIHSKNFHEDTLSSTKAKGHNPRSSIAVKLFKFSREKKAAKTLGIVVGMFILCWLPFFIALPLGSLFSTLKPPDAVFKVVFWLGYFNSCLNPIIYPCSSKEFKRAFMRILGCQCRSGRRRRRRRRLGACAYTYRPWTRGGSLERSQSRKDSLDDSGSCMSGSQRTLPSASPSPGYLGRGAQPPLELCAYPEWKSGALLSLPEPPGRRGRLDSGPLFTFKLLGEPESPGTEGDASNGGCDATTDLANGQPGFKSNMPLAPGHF
Experimental: (§1) The incubation was stopped by addition of ice-cold Tris buffer and rapid filtration through 0.2% polyethyleneimine pretreated Whatman GF/B or Schleicher & Schuell GF52 filters.
(§2) Data are expressed as mean Ki. All patents and other references cited herein are incorporated by reference in their entirety.

bovine α1a-adrenoceptor = target: T2, bovine α1a-adrenoceptor (Bos taurus, UniProt P18130); test: [3H]Prazosin binding, bovine α1a-adrenoceptor in COS-7 cell membranes; settings: bovine α1a, COS-7 membranes; read-out: Affinity (Ki) α1a, animal cloned receptors
T2 construct: expressed in transfected cells; host or cells: COS-7 cells (transient), membranes
T2 sequence (P18130 1-466): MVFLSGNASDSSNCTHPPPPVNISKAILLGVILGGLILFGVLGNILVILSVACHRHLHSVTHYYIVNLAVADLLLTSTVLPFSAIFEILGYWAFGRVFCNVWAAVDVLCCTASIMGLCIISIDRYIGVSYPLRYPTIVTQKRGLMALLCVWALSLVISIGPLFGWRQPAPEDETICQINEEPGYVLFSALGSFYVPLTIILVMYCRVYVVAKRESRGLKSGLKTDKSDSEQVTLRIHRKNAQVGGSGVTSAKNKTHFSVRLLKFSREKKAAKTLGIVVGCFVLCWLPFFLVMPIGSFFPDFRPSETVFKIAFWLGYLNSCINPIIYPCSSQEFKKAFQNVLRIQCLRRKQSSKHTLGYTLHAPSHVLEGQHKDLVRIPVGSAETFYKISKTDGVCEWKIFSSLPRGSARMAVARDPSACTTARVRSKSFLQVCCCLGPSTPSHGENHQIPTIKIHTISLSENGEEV
Experimental: as §1, §2

anaesthetised rats = test: Intracavernous and blood pressure recording in rats; assay type: in vivo, rat
Experimental: Rats were anaesthetised by an intraperitoneal injection of urethane (1.5 g/kg in sterile saline) and placed on an homeothermic blanket. Their temperature was maintained at 37° C. Rats were tracheotomized to facilitate spontaneous breathing and to prevent aspiration of saliva. A catheter filled with heparinized saline (25 IU/ml) was placed into the carotid to record mean blood pressure (BP, mmHg). The penis was desheathed and the corpora cavernosa were exposed. A 25-gauge stainless-steel needle was inserted into one corpus cavernosum to record intracavernous pressure (ICP in mmHg). […] Pressure catheters were connected to pressure transducers (Model 750, Elcomatic Ltd, Glasgow, UK).
Following a resting period of 10 minutes, the compound solvent was delivered intracavernously (50 μl/injection). Then, increasing doses of one compound were injected every ten minutes by the same route. Five injections (one solvent plus four cumulative doses) were performed in each rat, and five rats were used for the study of one compound. For each injection and for each compound, mean BP averaged over the ten minutes following the injection was measured. The maximal ICP value reached during the ten-minute period following an injection was also recorded. In these experiments, all the compounds tested were dissolved and diluted in propylene glycol-Sorensen solvent.

rat α1d-adrenoceptor = target: T3, rat α1d-adrenoceptor (Rattus norvegicus, UniProt P23944); test: [3H]Prazosin binding, rat α1d-adrenoceptor in COS-7 cell membranes; settings: COS-7 membranes, read-out: Affinity (Ki) α1d, animal cloned receptors
T3 construct: expressed in transfected cells; host or cells: COS-7 cells (transient), membranes
T3 sequence (P23944 1-561): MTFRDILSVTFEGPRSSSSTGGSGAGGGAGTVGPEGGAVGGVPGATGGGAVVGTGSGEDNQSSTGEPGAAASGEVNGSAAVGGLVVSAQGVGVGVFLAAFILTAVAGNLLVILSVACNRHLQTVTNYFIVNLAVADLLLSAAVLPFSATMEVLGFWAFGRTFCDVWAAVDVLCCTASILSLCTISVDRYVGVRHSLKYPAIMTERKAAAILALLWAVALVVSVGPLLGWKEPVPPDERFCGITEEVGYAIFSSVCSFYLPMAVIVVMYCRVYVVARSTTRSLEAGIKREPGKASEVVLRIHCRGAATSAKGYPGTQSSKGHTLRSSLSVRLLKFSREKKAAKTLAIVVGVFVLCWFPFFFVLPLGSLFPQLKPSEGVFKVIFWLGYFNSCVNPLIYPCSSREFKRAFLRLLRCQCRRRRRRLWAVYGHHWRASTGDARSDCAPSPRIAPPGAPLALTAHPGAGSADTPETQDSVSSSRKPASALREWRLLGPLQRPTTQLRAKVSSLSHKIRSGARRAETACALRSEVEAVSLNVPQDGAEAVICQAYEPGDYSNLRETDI
Experimental: as §1, §2

anaesthetised dogs = test: Intracavernous and blood pressure recording in dogs
Experimental: Male beagle dogs were anaesthetised with pentobarbital sodium (i.v. Nembutal, 35 mg/kg for induction and 4 mg/kg/h for maintenance) and intubated with an endotracheal cuffed tube to facilitate free ventilation. A collateral of the left femoral vein was cannulated with a PE catheter for infusion of the anaesthetic. Systemic BP was monitored via a Mikro-tip 6F (Millar Instruments) pressure transducer introduced into the aortic arch through the right common carotid artery. ICP was measured by means of a 20-gauge needle placed into the left or right corpus cavernosum and the same needle was used for intracavernous injection of the drugs. The needle was attached to a catheter filled with heparinized saline (25 IU/mL). […] The compounds to be tested were injected intracavernously in a volume of 0.5 ml and, after each injection, the needle was flushed with 0.5 ml of saline. The vehicles for compound dissolution were tested before the first dose of each drug. The compounds were administered in a cumulative way, with a 30-minute interval between doses. ICP (mmHg) was measured at the peak effect after the administration of the compounds. The duration of tumescence (DT, min) was measured from the beginning of the rise of ICP over its basal value up to the return to baseline. The systolic blood pressure and diastolic blood pressure (mmHg) were measured at the peak effect after the administration of compounds, in order to evaluate the effects of the compounds on BP independently from the effects on ICP. Moreover, the systolic blood pressure was measured at the time of maximal ICP value after intracavernous injection, to evaluate the ICP/BP ratios. […] The data were reported as mean ±s.e. of the mean, or percent variation (±s.e.) of the basal values.

Work on COc1cc2nc(N3CCN(C(=O)COc4c(OC)cccc4C(C)C)CC3)nc(N)c2cc1OC.Cl [Compound A, 4-Amino-6,7-dimethoxy-2-[4-[(2-isopropyl-6-methoxyphenoxy)acetyl]-1-piperazinyl]quinazoline hydrochloride] yielded a pKi (hamster α1b-adrenoceptor) of 9.35, a pKi (bovine α1a-adrenoceptor) of 8.12 and a BP (anaesthetised rats; 10 μg/kg intracavernous) of 91.3 ± 9.4 mmHg. It also gave an ICP (anaesthetised rats; 10 μg/kg intracavernous) of 36.8 ± 8.7 mmHg, a BP (anaesthetised rats; 30 μg/kg intracavernous) of 82.7 ± 11.0 mmHg and an ICP (anaesthetised rats; 30 μg/kg intracavernous) of 37.6 ± 10.1 mmHg. It also gave a BP (anaesthetised rats; 100 μg/kg intracavernous) of 74.8 ± 9.3 mmHg, an ICP (anaesthetised rats; 100 μg/kg intracavernous) of 38.7 ± 12.3 mmHg and a BP (anaesthetised rats; 300 μg/kg intracavernous) of 72.5 ± 5.6 mmHg. The ICP (anaesthetised rats; 300 μg/kg intracavernous, hydrochloride) was 50.6 mmHg and 50.6 ± 13.7 mmHg, the “effect on ICP (in words)” value (anaesthetised rats; intracavernous injection) was “dose-dependently increased ICP” and the “decrease of blood pressure accompanying the ICP/BP increase (FIG. 1)” value (anaesthetised rats; intracavernous, 10-300 μg) was no more than 20%. For the same compound, the “decrease of BP” value (anaesthetised rats; intracavernous, over the dose range up to 300 μg/kg) was “about 30%”, the pKi (rat α1d-adrenoceptor) was 7.99 and the DBP (anaesthetised dogs; 3 μg/kg intracavernous) was 116.0 ± 5.9 mmHg. The “DT (duration of tumescence)” value (anaesthetised dogs; 3 μg/kg intracavernous) was 1.2 ± 0.2 min, the ICP (anaesthetised dogs; 3 μg/kg intracavernous) was 26.7 ± 8.7 mmHg and the SBP (anaesthetised dogs; 3 μg/kg intracavernous) was 155.3 ± 5.5 mmHg. For the same compound, the “SBPICP (SBP at the time of maximal ICP value)” value (shortened to “SBPICP”) (anaesthetised dogs; 3 μg/kg intracavernous) was 156.7 ± 6.8 mmHg, the “increase of ICP in comparison with basal ICP values” (anaesthetised dogs; 3 μg/kg intracavernous) was 12 mmHg and the DBP (anaesthetised dogs; 10 μg/kg intracavernous) was 120.0 ± 5.9 mmHg. The “DT (duration of tumescence)” value (anaesthetised dogs; 10 μg/kg intracavernous) was 15.0 ± 8.4 min, the ICP (anaesthetised dogs; 10 μg/kg intracavernous) was 75.0 ± 32.4 mmHg and the SBP (anaesthetised dogs; 10 μg/kg intracavernous) was 157.5 ± 6.6 mmHg. For the same compound, the “SBPICP” value (anaesthetised dogs; 10 μg/kg intracavernous) was 158.5 ± 7.4 mmHg, the DBP (anaesthetised dogs; 30 μg/kg intracavernous) was 117.5 ± 6.5 mmHg and the “DT (duration of tumescence)” value (anaesthetised dogs; 30 μg/kg intracavernous) was 8.3 ± 3.2 min. The ICP (anaesthetised dogs; 30 μg/kg intracavernous) was 91.5 ± 26.9 mmHg, the SBP (anaesthetised dogs; 30 μg/kg intracavernous) was 154.0 ± 6.6 mmHg and the “SBPICP” value (anaesthetised dogs; 30 μg/kg intracavernous) was 156.5 ± 5.9 mmHg. For the same compound, the DBP (anaesthetised dogs; 100 μg/kg intracavernous) was 113.0 ± 7.3 mmHg, the “DT (duration of tumescence)” value (anaesthetised dogs; 100 μg/kg intracavernous) was 13.7 ± 5.6 min and the ICP (anaesthetised dogs; 100 μg/kg intracavernous) was 95.0 ± 23.3 mmHg. For the same compound, the SBP (anaesthetised dogs; 100 μg/kg intracavernous) was 147.5 ± 7.6 mmHg, the “SBPICP” value (anaesthetised dogs; 100 μg/kg intracavernous) was 148.5 ± 6.0 mmHg and the DBP (anaesthetised dogs; 300 μg/kg intracavernous) was 107.5 ± 7.4 mmHg. For the same compound, the ICP (anaesthetised dogs; 300 μg/kg intracavernous) was 111.0 ± 10.9 mmHg, the SBP (anaesthetised dogs; 300 μg/kg intracavernous) was 140.0 ± 7.4 mmHg and the “SBPICP” value (anaesthetised dogs; 300 μg/kg intracavernous) was 142.0 ± 6.5 mmHg. The “increase of ICP in comparison with basal ICP values” (anaesthetised dogs; 300 μg/kg intracavernous) was 96.5 mmHg, the “duration of action compared with reference compounds” value (anaesthetised dogs; Compound B at the highest dose tested) was “higher than that of the reference compounds tested” and the “hypotension computed on diastolic blood pressure (change)” value (anaesthetised dogs; dose-dependent over 3-300 μg/kg) was −10 to −19 mmHg. For the same compound, the “decrease of blood pressure accompanying the ICP/BP increase (FIG. 2)” value (anaesthetised dogs; intracavernous) was no more than 20% and the “effect on ICP (in words)” value (anaesthetised dogs; intracavernous injection) was “dose-dependently increased ICP”.
